Results on eight compounds are retold here after US8551959B2, “Glycolipid and use thereof” (RIKEN, priority 2008, dated 2013).

“Also recorded” adds a separate entry of the source.

For one test, the system named is IFN-γ. Description: IFN-γ content in serum (sandwich ELISA) after tail vein administration of synthetic glycolipid to mice. The format is in vivo, C57BL/6 mice. The settings on record: for IFN-γ production level in serum compared with α-GalCer / IFN-γ production level in serum compared with α-GalCer and carba-glycolipid A: 6-60 hr; for IFN-γ production level in serum compared with α-GalCer and carba-glycolipid A: 100 μg/kg body weight, FIG. 1. As to the method:
DMSO solutions (1 mg/mL concentration) of α-GalCer, carba-glycolipid A, compound 2-9, compound 3-4, compound 3-7 and compound 3-10 were prepared. The above-mentioned DMSO solutions were diluted with saline (manufactured by Otsuka Pharmaceutical Co., Ltd.) containing 0.5% Tween 20 (Bio-Rad) such that the dose would be 100 μg/kg body weight when 200 μL is administered to one mouse from the tail vein.
Each of the prepared solutions (200 μL) of carba-glycolipid A, compound 2-9, compound 3-4, compound 3-7 and compound 3-10 was injected to C57BL/6 mice (5 per group) from the tail vein. α-GalCer was used as a control substance, and 200 μL of α-GalCer solution prepared to a dose of 100 μg/kg body weight according to a similar method was injected from the tail vein. A group administered with a medium (200 μL of saline containing 0.5% Tween 20) was taken as a negative control. The blood (80 μL) was taken from the orbital plexus venosus 6, 12, 24, 36, 48 and 60 hr after administration, and the serum was prepared.
The content of IFN-γ in the serum after lapse of 6, 12, 24, 36, 48 and 60 hr from the administration was measured by sandwich ELISA (ENDOGEN). The measurement results (average value) of the IFN-γ production level and the standard deviation (STDEV) thereof are shown in FIG. 1.
By a method similar to Experimental Example 1, the content of IFN-γ in the serum after lapse of 6, 12, 24, 36, 48 and 60 hr from the administration of α-GalCer, compound 2-9, compound 3-4, compound 3-7, compound 3-10, compound 3-13 and compound 3-16 was measured. The measurement results (average value) of the IFN-γ production level and the standard deviation (STDEV) thereof are shown in FIG. 4.
By a method similar to Experimental Example 1 except that the dose of α-GalCer was 2 μg/mouse and the dose of compound 2-9 was 2 μg/mouse, 0.2 μg/mouse, 0.02 μg/mouse, 0.002 μg/mouse or 0.0002 μg/mouse, the content of IFN-γ in the serum after lapse of 6, 12, 24, 36, 48 and 60 hr from the administration of α-GalCer and compound 2-9 was measured. The measurement results (average value) of the IFN-γ production level and the standard deviation (STDEV) thereof are shown in FIG. 5.

In another test the test system is human NKT cells. Conditions: cited from earlier work.
Another test relates to NKT cells. Conditions: non-patent document 10; cited from earlier work.
For test [1] the following is noted: non-patent document 7; cited from earlier work.
Another test has as its system IL-4. Description: IL-4 content in serum (Cytometric bead array) after tail vein administration of synthetic glycolipid to mice. The test is classed as in vivo, C57BL/6 mice. Conditions: Experimental Example 3; 2, 0.2 or 0.02 μg/mouse; 3 and 6 hr; FIG. 7. As to the method: (§1) DMSO solutions (1 mg/mL concentration) of α-GalCer, carba-glycolipid A, compound 2-9, compound 3-4, compound 3-7 and compound 3-10 were prepared. The above-mentioned DMSO solutions were diluted with saline (manufactured by Otsuka Pharmaceutical Co., Ltd.) containing 0.5% Tween 20 (Bio-Rad) such that the dose would be 100 μg/kg body weight when 200 μL is administered to one mouse from the tail vein. […]
The content of IL-4 in the serum after lapse of 3, 6 and 12 hr from the administration was measured by Cytometric bead array system (BD Biosciences), which is one kind of the ELISA method. […]
By a method similar to Experimental Example 1, the content of IL-4 in the serum after lapse of 3 and 6 hr from the administration of α-GalCer, compound 2-9, compound 3-4, compound 3-7, compound 3-10, compound 3-13 and compound 3-16 was measured. […]
By a method similar to Experimental Example 1 except that the dose of α-GalCer and compound 2-9 was 2 μg/mouse, 0.2 μg/mouse or 0.02 μg/mouse, the content of IL-4 in the serum after lapse of 3 and 6 hr from the administration of α-GalCer and compound 2-9 was measured. […]

The subject of a further test is IL-12. The experiment in a line: IL-12 content in serum (Cytometric bead array) after tail vein administration of synthetic glycolipid to mice. The format is in vivo, C57BL/6 mice. The settings on record: Experimental Example 3; 2, 0.2 or 0.02 μg/mouse; 3 and 6 hr; FIG. 9. As to the method: as §1
The content of IL-12 in the serum after lapse of 3, 6 and 12 hr from the administration was measured by Cytometric bead array system (BD Biosciences), which is one kind of the ELISA method. […]
By a method similar to Experimental Example 1, the content of IL-12(p70) in the serum after lapse of 3 and 6 hr from the administration of α-GalCer, compound 2-9, compound 3-4, compound 3-7, compound 3-10, compound 3-13 and compound 3-16 was measured. […]
By a method similar to Experimental Example 1 except that the dose of α-GalCer and compound 2-9 was 2 μg/mouse, 0.2 μg/mouse or 0.02 μg/mouse, the content of IL-12(p70) in the serum after lapse of 3 and 6 hr from the administration of α-GalCer and compound 2-9 was measured. […]

[2] abbreviates: Experimental Example 2, conclusion from IFN-γ, IL-4 and IL-12 levels.
Setting [3] is: Experimental Example 2, tail vein, FIG. 4.
The mark [4] stands for this setting: Experimental Example 1, tail vein.
Where [5] appears, read: Experimental Example 1, conclusion from IFN-γ, IL-4 and IL-12 levels.

As to `CCCCCCCCCCCCCCCCCCCCCCCCCC(=O)N[C@@H](CO[C@H]1OC(COCCC)[C@H](O)[C@H](O)C1O)[C@H](O)[C@H](O)CCCCCCCCCCCCCC` (stereo partly shown) [compound 3-16], the “Selective induction of IFN-γ production compared to α-GalCer” value in the test on IFN-γ (setting [2]) is “selectively induced production of IFN-γ in larger amounts”. Also, in the test on IFN-γ (setting [3]), the “IFN-γ production level in serum compared with α-GalCer” value was “larger amount of IFN-γ than α-GalCer”.
On to `CCCCCCCCCCCCCCCCCCCCCCCCCC(=O)N[C@@H](CO[C@H]1OC(CC)[C@H](O)[C@H](O)C1O)[C@H](O)[C@H](O)CCCCCCCCCCCCCC` (stereo partly shown) [compound 3-4], for which, in the test with IFN-γ (setting [4]), the “IFN-γ production level in serum compared with α-GalCer and carba-glycolipid A” value was “larger amount of IFN-γ than α-GalCer and carba-glycolipid A”. Further, the “Selective induction of IFN-γ production compared to α-GalCer and carba-glycolipid A” value with IFN-γ (setting [5]) is reported as “selectively induced production of IFN-γ in larger amounts”. Also, the “Selective induction of IFN-γ production compared to α-GalCer” value in the test on IFN-γ (setting [2]) is on record as “selectively induced production of IFN-γ in larger amounts”. Besides, the “IFN-γ production level in serum compared with α-GalCer” value in the test on IFN-γ (setting [3]) was “larger amount of IFN-γ than α-GalCer”.
As for `CCCCCCCCCCCCCCCCCCCCCCCCCC(=O)N[C@@H](CO[C@H]1OC(COCC)[C@H](O)[C@H](O)C1O)[C@H](O)[C@H](O)CCCCCCCCCCCCCC` (stereo partly shown) [compound 3-13], in the test on IFN-γ (setting [2]), the “Selective induction of IFN-γ production compared to α-GalCer” value is on record as “selectively induced production of IFN-γ in larger amounts”. In the test with IFN-γ (setting [3]), the “IFN-γ production level in serum compared with α-GalCer” value is listed as “larger amount of IFN-γ than α-GalCer”.
Consider `CCCCCCCCCCCCCCCCCCCCCCCCCC(=O)N[C@@H](CO[C@H]1CC(CO)[C@H](O)C(O)C1O)[C@H](O)[C@H](O)CCCCCCCCCCCCCC` (stereo partly shown) [carba-glycolipid A], for which, in the test with human NKT cells, the “Activity on human NKT cells in vitro” value was “strong activity”. In addition, the “Induction of IFN-γ production by NKT cells” value in the test on NKT cells is “strongly induces IFN-γ production”.
As to `CCCCCCCCCCCCCCCCCCCCCCCCCC(=O)N[C@@H](CO[C@H]1OC(CF)[C@H](O)[C@H](O)C1O)[C@H](O)[C@H](O)CCCCCCCCCCCCCC` (stereo partly shown) [compound 3-7], the “IFN-γ production level in serum compared with α-GalCer and carba-glycolipid A” value in the test on IFN-γ (setting [4]) is “larger amount of IFN-γ than α-GalCer and carba-glycolipid A”. Besides, in the test with IFN-γ (setting [5]), the “Selective induction of IFN-γ production compared to α-GalCer and carba-glycolipid A” value is reported as “selectively induced production of IFN-γ in larger amounts”. Besides, in the test with IFN-γ (setting [2]), the “Selective induction of IFN-γ production compared to α-GalCer” value is “selectively induced production of IFN-γ in larger amounts”. Moreover, in the test with IFN-γ (setting [3]), the “IFN-γ production level in serum compared with α-GalCer” value is recorded as “larger amount of IFN-γ than α-GalCer”.
On to `CCCCCCCCCCCCCCCCCCCCCCCCCC(=O)N[C@@H](COC1OC(CO)C(O)C(O)C1O)[C@H](O)[C@H](O)CCCCCCCCCCCCCC` (stereo partly drawn) [α-GalCer, reference compound], for which the IFN-γ/IL-4 ratio with IFN-γ (Experimental Example 1) is recorded as 2. Besides, in test [1], the “Immunostimulatory activity in a series of synthesis analogs” value was “shows the strongest activity”.
On to `CCCCCCCCCCCCCCCCCCCCCCCCCC(=O)N[C@@H](CO[C@H]1OC(C)[C@H](O)[C@H](O)C1O)[C@H](O)[C@H](O)CCCCCCCCCCCCCC` (stereo partly shown) [compound 3-10], for which the “IFN-γ production level in serum compared with α-GalCer and carba-glycolipid A” value in the test with IFN-γ (setting [4]) is “larger amount of IFN-γ than α-GalCer and carba-glycolipid A”. For the same compound, in the test on IFN-γ (setting [5]), the “Selective induction of IFN-γ production compared to α-GalCer and carba-glycolipid A” value is recorded as “selectively induced production of IFN-γ in larger amounts”. In the test with IFN-γ (setting [2]), the “Selective induction of IFN-γ production compared to α-GalCer” value is listed as “selectively induced production of IFN-γ in larger amounts”. Besides, in the test on IFN-γ (setting [3]), the “IFN-γ production level in serum compared with α-GalCer” value is reported as “larger amount of IFN-γ than α-GalCer”.
`CCCCCCCCCCCCCCCCCCCCCCCCCC(=O)N[C@@H](CO[C@H]1OC(COC)[C@H](O)[C@H](O)C1O)[C@H](O)[C@H](O)CCCCCCCCCCCCCC` (stereo partly shown) [compound 2-9]: the “IFN-γ production level in serum compared with α-GalCer and carba-glycolipid A” value in the test on IFN-γ (setting [4]) is “larger amount of IFN-γ than α-GalCer and carba-glycolipid A; also recorded: most strongly”. Besides, in the test on IFN-γ (setting [5]), the “Selective induction of IFN-γ production compared to α-GalCer and carba-glycolipid A” value is “selectively induced production of IFN-γ in larger amounts”. The “Selective induction of IFN-γ production compared to α-GalCer” value with IFN-γ (setting [2]) is “selectively induced production of IFN-γ in larger amounts”; with IFN-γ (Experimental Example 3, lower doses of compound 2-9), “selectively induced production of IFN-γ in larger amounts”. Besides, the “IFN-γ production level in serum compared with α-GalCer” value in the test on IFN-γ (setting [3]) is on record as “larger amount of IFN-γ than α-GalCer; also recorded: most strongly”; in the test with IFN-γ (Experimental Example 3, compound 2-9 at 2 to 0.0002 μg/mouse, α-GalCer 2 μg/mouse, FIG. 5), “larger amount of IFN-γ than α-GalCer even by administration at a lower concentration”. Also, in the test with IL-4, the “IL-4 production level in serum” value was “decreased as the dose of compound 2-9 was reduced”. Further, the “IL-12(p70) production level in serum as compared with α-GalCer” value in the test with IL-12 is reported as “up to 4 fold”.
